Legend:
[1] = Pharmacokinetic assay in male SD rats (iv and oral); assay type: in vivo; conditions: for F: po 5 mg/kg vs iv 1 mg/kg; for AUC(0-t) / Cmax / Tmax / clearance / half-life / Vd: rat, plasma; for Vd: read-out: Vss
Description: Preparation of test compound solutions: the test compound solution was prepared for oral and intravenous administration by using 5% DMSO, 5% Solutol HS 15 and 90% normal saline.
Male SD rats weighing 190-250 g were randomly divided into two groups, and each group had three rats; one group was administered with test compound at a dose of 1.0 mg/kg by intravenous injection, the other group was administered with test compound at a dose of 5.0 mg/kg by oral. After administering, blood samples were collected at time points of 0.0833, 0.25, 0.5, 1.0, 2.0, 4.0, 7.0 and 24 h. Standard curve was plotted based on concentrations of the samples in a suitable range, and the concentrations of test compounds in plasma samples were determined by using AB SCIEX API4000 LC-MS/MS in MRM mode. Pharmacokinetic parameters were calculated according to drug concentration−time curve using a noncompartmental method with WinNonLin 6.3 software.

[2] = test system: erythropoietin (EPO) production in Hep3B cells; test: Activity in inducing erythropoietin (EPO) production in vitro, Hep3B cells, EPO ELISA; assay type: cell-based; conditions: Homo sapiens, 24 h, EPO in supernatant by ELISA
Description: The activities of compounds of the invention in inducing erythropoietin (EPO) production were assessed by using human live cancer cell strain Hep3B (ATCC: American type culture collection, Manassas, Va.). Hep3B cells seeded in a 96-well plate with a density of 2.5×10^4 cells/well were cultivated overnight in DMEM culture medium (Dulbecco's Modified Eagle's Medium) at 37° C. in the presence of 10% fetal bovine serum (FBS). The next day, the supernatant liquid of culture medium was abandoned by suction, and to the residue was added fresh DMEM (containing 0.5% DMSO, 0.5% FBS) containing compound of the invention with a series of concentrations (0.31160.00 μM) or containing solvent used for comparison. The cells were cultivated at 37° C. for 24 h. The supernatant liquid was collected and the EPO concentration of the supernatant was quantified by using human EPO ELISA kit (Abcam). The activity of each compound in inducing erythropoietin (EPO) production was represented by half maximal effective concentration (EC50).

SMILES	F [1] [%]	AUC(0-t) ([1]; iv, 1 mg/kg) [ng·h/mL]	Cmax ([1]; iv, 1 mg/kg) [ng/mL]	Tmax ([1]; iv, 1 mg/kg) [min]	clearance ([1]; iv, 1 mg/kg) [mL/min/kg]	half-life ([1]; iv, 1 mg/kg) [min]	Vd ([1]; iv, 1 mg/kg) [L/kg]	AUC(0-t) ([1]; po, 5 mg/kg) [ng·h/mL]	Cmax ([1]; po, 5 mg/kg) [ng/mL]	Tmax ([1]; po, 5 mg/kg) [min]	half-life ([1]; po, 5 mg/kg) [min]	EC50 [2] [µM]
Cn1c(=O)c(C(=O)NCC(=O)O)c(O)c2ccc(Oc3ccccc3)cc21 [Example 1, 2-(4-hydroxy-1-methyl-2-oxo-7-phenoxy-1,2-dihydroquinoline-3-carboxamido)acetic acid]	81.5	9340	8910	4.98	1.77	467	0.234	38400	18400	40	252	5.35
O=C(O)CNC(=O)c1c(O)c2ccc(Oc3ccccc3)cc2n(CC2CC2)c1=O [Example 2, 2-(1-(cyclopropylmethyl)-4-hydroxy-2-oxo-7-phenoxy-1,2-dihydroquinoline-3-carboxamido)acetic acid]	100.4	20200	7190	13.3	0.833	224	0.159	101000	13200	130	239	5
Cn1c(=O)c(C(=O)NCC(=O)O)c(O)c2ccc(Oc3ccc(Cl)cc3)cc21 [Example 13, 2-(7-(4-chlorophenoxy)-4-hydroxy-1-methyl-2-oxo-1,2-dihydroquinoline-3-carboxamido)acetic acid]	94.6	13100	8480	4.98	1.32	57.5	0.107	57000	12300	70.2	254	7.1
Cn1c(=O)c(C(=O)NCC(=O)O)c(O)c2ccc(Oc3cc(Cl)ccc3F)cc21 [Example 22, 2-(7-(5-chloro-2-fluorophenoxy)-4-hydroxy-1-methyl-2-oxo-1,2-dihydroquinoline-3-carboxamido)acetic acid]	108.6	10800	10100	4.98	1.56	57.5	0.146	58700	10700	50	167	4.18
Cn1c(=O)c(C(=O)NCC(=O)O)c(O)c2ccc(Oc3ccc(F)cc3)cc21 [Example 47, 2-(7-(4-fluorophenoxy)-4-hydroxy-1-methyl-2-oxo-1,2-dihydroquinoline-3-carboxamido)acetic acid]	90.7	10200	6400	4.98	1.66	63.6	0.144	46200	11500	30	158	3.92
Cn1c(=O)c(C(=O)NCC(=O)O)c(O)c2ccc(Oc3ccccc3Cl)cc21 [Example 48, 2-(7-(2-chlorophenoxy)-4-hydroxy-1-methyl-2-oxo-1,2-dihydroquinoline-3-carboxamido)acetic acid]												6.6

Now those with a lower EC50 [2], led by results:

F [1] [%]	AUC(0-t) ([1]; iv, 1 mg/kg) [ng·h/mL]	Cmax ([1]; iv, 1 mg/kg) [ng/mL]	Tmax ([1]; iv, 1 mg/kg) [min]	clearance ([1]; iv, 1 mg/kg) [mL/min/kg]	half-life ([1]; iv, 1 mg/kg) [min]	Vd ([1]; iv, 1 mg/kg) [L/kg]	AUC(0-t) ([1]; po, 5 mg/kg) [ng·h/mL]	Cmax ([1]; po, 5 mg/kg) [ng/mL]	Tmax ([1]; po, 5 mg/kg) [min]	half-life ([1]; po, 5 mg/kg) [min]	EC50 [2] [µM]	SMILES
98.7	8260	6080	4.98	2.06	65.4	0.164	41000	9560	30	84	2.26	Cn1c(=O)c(C(=O)NCC(=O)O)c(O)c2ccc(Oc3cc(F)ccc3F)cc21 [Example 19, 2-(7-(2,5-difluorophenoxy)-4-hydroxy-1-methyl-2-oxo-1,2-dihydroquinoline-3-carboxamido)acetic acid]
107.8	6200	4170	4.98	2.67	59.4	0.217	33300	11700	55	106	1.51	Cn1c(=O)c(C(=O)NCC(=O)O)c(O)c2ccc(Oc3ccc(F)cc3Cl)cc21 [Example 28, 2-(7-(2-chloro-4-fluorophenoxy)-4-hydroxy-1-methyl-2-oxo-1,2-dihydroquinoline-3-carboxamido)acetic acid]

From patent US10065928B2, “Quinolinone compound and use thereof” (Sunshine Lake Pharma Co., Ltd., priority 2014, dated 2018)
